Laboratory results published in patent US8952024B2, “Herbicidal pyrimidone derivatives” (E I du Pont de Nemours and Company, priority 2009, dated 2015).

How the values were obtained:
Assay in all cases: Test B pre-/postemergence plant response
Format in all cases: in vivo
wild oat (Avena fatua) = tested on: wild oat (Avena fatua)
Text: (§1) Seeds of plant species selected from blackgrass (Alopecurus myosuroides), downy bromegrass (Bromus tectorum), green foxtail (Setaria viridis), Italian ryegrass (Lolium multiflorum), wheat (Triticum aestivum), wild oat (Avena fatua), deadnettle (henbit deadnettle, Lamium amplexicaule), galium (catchweed bedstraw, Galium aparine), bermudagrass (Cynodon dactylon), Surinam grass (Brachiaria decumbens), cocklebur (Xanthium strumarium), corn (Zea mays), large crabgrass (Digitaria sanguinalis), woolly cupgrass (Eriochloa villosa), giant foxtail (Setaria faberii), goosegrass (Eleusine indica), johnsongrass (Sorghum halepense), kochia (Kochia scoparia), lambsquarters (Chenopodium album), morningglory (Ipomoea coccinea), nightshade (eastern black nightshade, Solanum ptycanthum), yellow nutsedge (Cyperus esculentus), pigweed (Amaranthus retroflexus), ragweed (common ragweed, Ambrosia elatior), Russian thistle (Salsola kali), soybean (Glycine max), sunflower (common oilseed sunflower, Helianthus annuus) and velvetleaf (Abutilon theophrasti) were planted into a blend of loam soil and sand and treated preemergence with test compounds formulated in a non-phytotoxic solvent mixture which included a surfactant.
(§2) At the same time, plants selected from these crop and weed species and also winter barley (Hordeum vulgare), canarygrass (Phalaris minor), chickweed (Stellaria media) and windgrass (Apera spica-venti) were planted in pots containing Redi-Earth® planting medium (Scotts Company, 14111 Scottslawn Road, Marysville, Ohio 43041) comprising spaghnum peat moss, vermiculite, wetting agent and starter nutrients and treated with postemergence applications of some of the test chemicals formulated in the same manner. Plants ranged in height from 2 to 18 cm (1- to 4-leaf stage) for postemergence treatments.
(§3) Treated plants and controls were maintained in a greenhouse for 13 to 15 days, after which time all treated plants were visually evaluated and compared to controls. Plant response ratings, summarized in Table B, are based on a scale of 0 to 100 where 0 is no effect and 100 is complete control. A dash (-) response means no test result.

[1] = tested on: morningglory (Ipomoea coccinea)
Text: as §1, §2, §3

[2] = tested on: velvetleaf (Abutilon theophrasti)
Text: as §1, §2, §3

soybean (Glycine max) = tested on: soybean (Glycine max)
Text: as §1, §2, §3

[3] = tested on: blackgrass (Alopecurus myosuroides)
Text: as §1, §2, §3

[4] = tested on: goosegrass (Eleusine indica)
Text: as §1, §2, §3

[5] = tested on: giant foxtail (Setaria faberii)
Text: as §1, §2, §3

[6] = tested on: downy bromegrass (Bromus tectorum)
Text: as §1, §2, §3

corn (Zea mays) = tested on: corn (Zea mays)
Text: as §1, §2, §3

kochia (Kochia scoparia) = tested on: kochia (Kochia scoparia)
Text: as §1, §2, §3

[7] = tested on: large crabgrass (Digitaria sanguinalis)
Text: as §1, §2, §3

[8] = tested on: Surinam grass (Brachiaria decumbens)
Text: as §1, §2, §3

[9] = tested on: woolly cupgrass (Eriochloa villosa)
Text: as §1, §2, §3

[10] = tested on: cocklebur (Xanthium strumarium)
Text: as §1, §2, §3

[11] = tested on: johnsongrass (Sorghum halepense)
Text: as §1, §2, §3

[12] = tested on: yellow nutsedge (Cyperus esculentus)
Text: as §1, §2, §3

[13] = tested on: green foxtail (Setaria viridis)
Text: as §1, §2, §3

[14] = 250 g ai/ha, Preemergence, 0 to 100 scale
[15] = Postemergence, 31 g ai/ha, scale 0 to 100 (0 no effect, 100 complete control)
[16] = Postemergence, 62 g ai/ha, scale 0 (no effect) to 100 (complete control), 13 to 15 days
[17] = Postemergence, 125 g ai/ha, visual rating after 13 to 15 days, scale 0 (no effect) to 100 (complete control)
[18] = Postemergence, 250 g ai/ha, scale 0 to 100
[19] = Preemergence, 31 g ai/ha, scale 0 to 100 (0 no effect, 100 complete control)
[20] = Preemergence, 62 g ai/ha, scale 0 to 100, 0 no effect, 100 complete control
[21] = Preemergence, 125 g ai/ha, 0 to 100 scale

Substance: 5-[(2-hydroxy-6-oxo-1-cyclohexen-1-yl)carbonyl]-3-(2-methoxyethyl)-2-(3-thienyl)-4(3H)-pyrimidinone [Compound 97]
- Plant response rating, Oat, Wild (wild oat (Avena fatua); [14]): 10
- Plant response rating, Oat, Wild (wild oat (Avena fatua); [15]): 0
- Plant response rating, Oat, Wild (wild oat (Avena fatua); [16]): 5
- Plant response rating, Oat, Wild (wild oat (Avena fatua); [17]): 20
- Oat, Wild plant response rating (wild oat (Avena fatua); [18]): 40
- Plant response rating, Oat, Wild (wild oat (Avena fatua); [19]): 0
- Plant response rating, Oat, Wild (wild oat (Avena fatua); [20]): 0
- Oat, Wild plant response rating (wild oat (Avena fatua); [21]): 0
- Plant response rating, Morningglory [1, 14]: 40
- Plant response rating, Morningglory [1, 15]: 0
- Plant response rating, Morningglory [1, 16]: 45
- Plant response rating, Morningglory [1, 17]: 45
- Morningglory plant response rating [1, 18]: 55
- Plant response rating, Morningglory [1, 19]: 0
- Plant response rating, Morningglory [1, 20]: 0
- Morningglory plant response rating [1, 21]: 0
- Plant response rating, Velvetleaf [2, 14]: 100
- Plant response rating, Velvetleaf [2, 15]: 70
- Plant response rating, Velvetleaf [2, 16]: 70
- Plant response rating, Velvetleaf [2, 17]: 75
- Velvetleaf plant response rating [2, 18]: 85
- Plant response rating, Velvetleaf [2, 19]: 55
- Plant response rating, Velvetleaf [2, 20]: 100
- Velvetleaf plant response rating [2, 21]: 100
- Plant response rating, Soybean (soybean (Glycine max); [14]): 75
- Plant response rating, Soybean (soybean (Glycine max); [15]): 95
- Plant response rating, Soybean (soybean (Glycine max); [16]): 95
- Plant response rating, Soybean (soybean (Glycine max); [17]): 95
- Soybean plant response rating (soybean (Glycine max); [18]): 98
- Plant response rating, Soybean (soybean (Glycine max); [19]): 10
- Plant response rating, Soybean (soybean (Glycine max); [20]): 60
- Soybean plant response rating (soybean (Glycine max); [21]): 65
- Plant response rating, Blackgrass [3, 14]: 20
- Plant response rating, Blackgrass [3, 15]: 0
- Plant response rating, Blackgrass [3, 16]: 0
- Plant response rating, Blackgrass [3, 17]: 50
- Blackgrass plant response rating [3, 18]: 50
- Plant response rating, Blackgrass [3, 19]: 0
- Plant response rating, Blackgrass [3, 20]: 0
- Blackgrass plant response rating [3, 21]: 0
- Plant response rating, Goosegrass [4, 14]: 98
- Plant response rating, Goosegrass [4, 15]: 45
- Plant response rating, Goosegrass [4, 16]: 75
- Plant response rating, Goosegrass [4, 17]: 95
- Goosegrass plant response rating [4, 18]: 98
- Plant response rating, Goosegrass [4, 19]: 0
- Goosegrass plant response rating [4, 21]: 95
- Plant response rating, Foxtail, Giant [5, 14]: 45
- Plant response rating, Foxtail, Giant [5, 15]: 70
- Plant response rating, Foxtail, Giant [5, 16]: 75
- Plant response rating, Foxtail, Giant [5, 17]: 80
- Foxtail, Giant plant response rating [5, 18]: 95
- Plant response rating, Foxtail, Giant [5, 19]: 0
- Plant response rating, Foxtail, Giant [5, 20]: 0
- Foxtail, Giant plant response rating [5, 21]: 0
- Plant response rating, Bromegrass, Downy [6, 14]: 0
- Plant response rating, Bromegrass, Downy [6, 15]: 0
- Plant response rating, Bromegrass, Downy [6, 16]: 0
- Plant response rating, Bromegrass, Downy [6, 17]: 10
- Bromegrass, Downy plant response rating [6, 18]: 20
- Plant response rating, Bromegrass, Downy [6, 19]: 0
- Plant response rating, Bromegrass, Downy [6, 20]: 0
- Bromegrass, Downy plant response rating [6, 21]: 0
- Plant response rating, Corn (corn (Zea mays); [14]): 0
- Plant response rating, Corn (corn (Zea mays); [15]): 15
- Plant response rating, Corn (corn (Zea mays); [16]): 15
- Plant response rating, Corn (corn (Zea mays); [17]): 45
- Corn plant response rating (corn (Zea mays); [18]): 65
- Plant response rating, Corn (corn (Zea mays); [19]): 0
- Plant response rating, Corn (corn (Zea mays); [20]): 0
- Corn plant response rating (corn (Zea mays); [21]): 0
- Plant response rating, Kochia (kochia (Kochia scoparia); [14]): 100
- Plant response rating, Kochia (kochia (Kochia scoparia); [15]): 10
- Plant response rating, Kochia (kochia (Kochia scoparia); [16]): 15
- Plant response rating, Kochia (kochia (Kochia scoparia); [17]): 15
- Kochia plant response rating (kochia (Kochia scoparia); [18]): 20
- Plant response rating, Kochia (kochia (Kochia scoparia); [19]): 0
- Plant response rating, Kochia (kochia (Kochia scoparia); [20]): 50
- Kochia plant response rating (kochia (Kochia scoparia); [21]): 100
- Plant response rating, Crabgrass, Large [7, 14]: 95
- Plant response rating, Crabgrass, Large [7, 15]: 65
- Plant response rating, Crabgrass, Large [7, 16]: 70
- Plant response rating, Crabgrass, Large [7, 17]: 75
- Crabgrass, Large plant response rating [7, 18]: 80
- Plant response rating, Crabgrass, Large [7, 19]: 0
- Plant response rating, Crabgrass, Large [7, 20]: 0
- Crabgrass, Large plant response rating [7, 21]: 70
- Plant response rating, Surinam Grass [8, 14]: 80
- Plant response rating, Surinam Grass [8, 15]: 60
- Plant response rating, Surinam Grass [8, 16]: 70
- Plant response rating, Surinam Grass [8, 17]: 70
- Surinam Grass plant response rating [8, 18]: 80
- Plant response rating, Surinam Grass [8, 19]: 0
- Plant response rating, Surinam Grass [8, 20]: 10
- Surinam Grass plant response rating [8, 21]: 15
- Plant response rating, Cupgrass, Woolly [9, 14]: 40
- Plant response rating, Cupgrass, Woolly [9, 15]: 60
- Plant response rating, Cupgrass, Woolly [9, 16]: 70
- Plant response rating, Cupgrass, Woolly [9, 17]: 70
- Cupgrass, Woolly plant response rating [9, 18]: 75
- Plant response rating, Cupgrass, Woolly [9, 19]: 0
- Plant response rating, Cupgrass, Woolly [9, 20]: 10
- Cupgrass, Woolly plant response rating [9, 21]: 35
- Plant response rating, Cocklebur [10, 14]: 98
- Plant response rating, Cocklebur [10, 15]: 70
- Plant response rating, Cocklebur [10, 16]: 90
- Plant response rating, Cocklebur [10, 17]: 95
- Cocklebur plant response rating [10, 18]: 98
- Plant response rating, Cocklebur [10, 19]: 0
- Plant response rating, Cocklebur [10, 20]: 15
- Cocklebur plant response rating [10, 21]: 65
- Plant response rating, Johnsongrass [11, 14]: 75
- Plant response rating, Johnsongrass [11, 15]: 0
- Plant response rating, Johnsongrass [11, 16]: 55
- Plant response rating, Johnsongrass [11, 17]: 60
- Johnsongrass plant response rating [11, 18]: 75
- Plant response rating, Johnsongrass [11, 19]: 0
- Plant response rating, Johnsongrass [11, 20]: 10
- Johnsongrass plant response rating [11, 21]: 60
- Plant response rating, Nutsedge, Yellow [12, 14]: 75
- Plant response rating, Nutsedge, Yellow [12, 15]: 15
- Plant response rating, Nutsedge, Yellow [12, 16]: 55
- Plant response rating, Nutsedge, Yellow [12, 17]: 60
- Nutsedge, Yellow plant response rating [12, 18]: 75
- Plant response rating, Nutsedge, Yellow [12, 19]: 0
- Plant response rating, Nutsedge, Yellow [12, 20]: 0
- Nutsedge, Yellow plant response rating [12, 21]: 55
- Plant response rating, Foxtail, Green [13, 14]: 30
- Plant response rating, Foxtail, Green [13, 15]: 10
- Plant response rating, Foxtail, Green [13, 16]: 25
- Plant response rating, Foxtail, Green [13, 17]: 70
- Foxtail, Green plant response rating [13, 18]: 70
- Plant response rating, Foxtail, Green [13, 19]: 0
- Plant response rating, Foxtail, Green [13, 20]: 0
- Foxtail, Green plant response rating [13, 21]: 0
